Assay results as given in paper PMC11340408 (RSC Advances, 2024).

Tests used:
Assay type in all cases: cell-based, human
MCF-7 cell line = test: MTT assay, breast cancer MCF-7 cell line; settings: for IC50: Homo sapiens, MCF7, 48 h, read-out: IC50 against MCF-7; for Activity against MCF-7 compared to MTX (in words): MTT assay; for times greater efficacy than MTX against MCF-7: ratio to MTX IC50
A-375 cell line = test: MTT assay, melanoma A-375 cell line; settings: for IC50: Homo sapiens, A-375, 48 h, read-out: IC50 against A375; for Viability of A375 (in words): 15.62–500 μM, Fig. 6A
HEK-293 cell line = test: MTT assay, toxicity on normal cell line HEK-293; settings: for IC50: Homo sapiens, HEK293, 48 h, read-out: IC50 against HEK-293; for Viability of HEK-293 (in words): 15.62–500 μM

In the case of COc1ccc(/C=C/C(=O)c2ccc(Oc3nc4c(c(=O)n(C)c(=O)n4C)n3C)cc2)cc1 [Compound 4h, (E)-8-(4-(3-(4-Methoxyphenyl)acryloyl)phenoxy)-1,3,7-trimethyl-1H-purine-2,6(3H,7H)-dione], the IC50 (MCF-7 cell line) is reported as greater than 500 µM, the IC50 (A-375 cell line) is reported as greater than 500 µM and the IC50 (HEK-293 cell line) is reported as greater than 500 µM.
With Cn1c(=O)c2c(nc(Oc3ccc(C(=O)/C=C/c4ccc(Cl)cc4)cc3)n2C)n(C)c1=O [Compound 4e, (E)-8-(4-(3-(4-Chlorophenyl)acryloyl)phenoxy)-1,3,7-trimethyl-1H-purine-2,6(3H,7H)-dione] the IC50 (MCF-7 cell line) was 35 ± 2.2 µM, the “Activity against MCF-7 compared to MTX (in words)” value (MCF-7 cell line) was “activities surpassing that of MTX” and the “times greater efficacy than MTX against MCF-7” value (“times greater efficacy than MTX” for short) (MCF-7 cell line) was roughly 10 times. For the same compound, the IC50 (A-375 cell line) was 273 ± 3.4 µM and the IC50 (HEK-293 cell line) was 386 ± 3.2 µM.
For COc1ccc(/C=C/C(=O)c2ccc(Oc3nc4c(c(=O)n(C)c(=O)n4C)n3C)cc2)c(OC)c1 [Compound 4g, (E)-8-(4-(3-(2,4-Dimethoxyphenyl)acryloyl)phenoxy)-1,3,7-trimethyl-1H-purine-2,6(3H,7H)-dione], the IC50 (MCF-7 cell line) was greater than 500 µM, the IC50 (A-375 cell line) was 425 ± 3.5 µM and the IC50 (HEK-293 cell line) was greater than 500 µM.
With Cn1c(=O)c2c(nc(Oc3ccc(/C=C/C(=O)c4ccc(Cl)cc4)cc3)n2C)n(C)c1=O [Compound 5f, (E)-8-(4-(3-(4-Chlorophenyl)-3-oxoprop-1-enyl)phenoxy)-1,3,7-trimethyl-1H-purine-2,6(3H,7H)-dione] the IC50 (MCF-7 cell line) was 130 ± 3.4 µM, the IC50 (A-375 cell line) was 368 ± 3.1 µM and the “Viability of HEK-293 (in words)” value (HEK-293 cell line; Fig. 6C) was “more toxic”. It also gave an IC50 (HEK-293 cell line) of 240 ± 3.7 µM.
Cc1ccc(C(=O)/C=C/c2ccc(Oc3nc4c(c(=O)n(C)c(=O)n4C)n3C)cc2)cc1 [Compound 5d, (E)-1,3,7-Trimethyl-8-(4-(3-oxo-3-p-tolylprop-1-enyl)phenoxy)-1H-purine-2,6(3H,7H)-dione] gave an IC50 (MCF-7 cell line) greater than 500 µM, an IC50 (A-375 cell line) greater than 500 µM and an IC50 (HEK-293 cell line) greater than 500 µM.
Compound Cn1c(=O)c2c(nc(Oc3ccc(C(=O)/C=C/c4ccc(Cl)cc4Cl)cc3)n2C)n(C)c1=O [Compound 4b, (E)-8-(4-(3-(2,4-Dichlorophenyl)acryloyl)phenoxy)-1,3,7-trimethyl-1H-purine-2,6(3H,7H)-dione] has an IC50 (MCF-7 cell line) of 230 ± 3.2 µM, an IC50 (A-375 cell line) of 325 ± 3.1 µM and an IC50 (HEK-293 cell line) of 347 ± 4.2 µM.
With COC(=O)c1ccc(/C=C/C(=O)c2ccc(Oc3nc4c(c(=O)n(C)c(=O)n4C)n3C)cc2)cc1 [Compound 4k, (E)-Methyl 4-(3-oxo-3-(4-(1,3,7-trimethyl-2,6-dioxo-2,3,6,7-tetrahydro-1H-purin-8-yloxy)phenyl)prop-1-enyl)benzoate] the “Viability of MCF-7 (in words)” value (MCF-7 cell line; 15.62–500 μM, Fig. 6B) was “lowest viability rate”, the IC50 (MCF-7 cell line) was 34 ± 3.5 µM and the “Activity against MCF-7 compared to MTX (in words)” value (MCF-7 cell line) was “activities surpassing that of MTX”. For the same compound, the “times greater efficacy than MTX” value (MCF-7 cell line) was roughly 10 times, the “Viability of A375 (in words)” value (A-375 cell line) was “lowest viability values” and the IC50 (A-375 cell line) was 92 ± 3.2 µM. For the same compound, the “Viability of HEK-293 (in words)” value (HEK-293 cell line; Fig. 6C) was “highest toxicity and lowest viability”, the IC50 (HEK-293 cell line) was 99 ± 3 µM and the “Toxicity to HEK-293 compared to MTX (in words)” value (HEK-293 cell line; MTT assay) was “more toxic”. The “Toxicity to HEK-293 cells (in words)” value (HEK-293 cell line; MTT assay, normal cell line) was “most toxic”.
For CN(Cc1cnc2nc(N)nc(N)c2n1)c1ccc(C(=O)N[C@@H](CCC(=O)O)C(=O)O)cc1 [MTX, methotrexate, reference compound], the IC50 (MCF-7 cell line) was 343 ± 3.6 µM, the IC50 (A-375 cell line) was 418 ± 2 µM and the “Toxicity against HEK-293 at 500 μM (in words)” value (HEK-293 cell line; 500 μM, Fig. 6C) was “highest toxicity”. It also gave an IC50 (HEK-293 cell line) of 199 ± 2.4 µM.
With Cn1c(=O)c2c(nc(Oc3ccc(/C=C/C(=O)c4ccc([N+](=O)[O-])cc4)cc3)n2C)n(C)c1=O [Compound 5b, (E)-1,3,7-Trimethyl-8-(4-(3-(4-nitrophenyl)-3-oxoprop-1-enyl)phenoxy)-1H-purine-2,6(3H,7H)-dione] the IC50 (MCF-7 cell line) was 223 ± 3.7 µM, the IC50 (A-375 cell line) was 275 ± 3.7 µM and the IC50 (HEK-293 cell line) was 419 ± 4.6 µM.
Cn1c(=O)c2c(nc(Oc3ccc(/C=C/C(=O)c4ccc5ccccc5c4)cc3)n2C)n(C)c1=O [Compound 5e, (E)-1,3,7-Trimethyl-8-(4-(3-(naphthalen-2-yl)-3-oxoprop-1-enyl)phenoxy)-1H-purine-2,6(3H,7H)-dione] gave an IC50 (MCF-7 cell line) of 333 ± 2.5 µM, an IC50 (A-375 cell line) greater than 500 µM and an IC50 (HEK-293 cell line) greater than 500 µM.
Compound Cn1c(=O)c2c(nc(Oc3ccc(C(=O)/C=C/c4c(Cl)cccc4Cl)cc3)n2C)n(C)c1=O [Compound 4j, (E)-8-(4-(3-(2,6-Dichlorophenyl)acryloyl)phenoxy)-1,3,7-trimethyl-1H-purine-2,6(3H,7H)-dione] has an IC50 (MCF-7 cell line) of 181 ± 3.1 µM, an IC50 (A-375 cell line) of 200 ± 4.3 µM and an IC50 (HEK-293 cell line) of 214 ± 4.3 µM.
For COc1ccc(C(=O)/C=C/c2ccc(Oc3nc4c(c(=O)n(C)c(=O)n4C)n3C)cc2)cc1 [Compound 5a, (E)-8-(4-(3-(4-Methoxyphenyl)-3-oxoprop-1-enyl)phenoxy)-1,3,7-trimethyl-1H-purine-2,6(3H,7H)-dione], the IC50 (MCF-7 cell line) was 249 ± 3.2 µM, the IC50 (A-375 cell line) was 249 ± 3.6 µM and the IC50 (HEK-293 cell line) was greater than 500 µM.
For Cn1c(=O)c2c(nc(Oc3ccc(C(=O)/C=C/c4ccccc4)cc3)n2C)n(C)c1=O [Compound 4d, (E)-8-(4-Cinnamoylphenoxy)-1,3,7-trimethyl-1H-purine-2,6(3H,7H) dione], the IC50 (MCF-7 cell line) was 18 ± 1.9 µM, the “Activity against MCF-7 compared to MTX (in words)” value (MCF-7 cell line) was “activities surpassing that of MTX” and the “times greater efficacy than MTX” value (MCF-7 cell line) was roughly 19 times. It also gave an IC50 (A-375 cell line) of 157 ± 4.2 µM and an IC50 (HEK-293 cell line) of 220 ± 3.4 µM.
Cn1c(=O)c2c(nc(Oc3ccc(C(=O)/C=C/c4cccc([N+](=O)[O-])c4)cc3)n2C)n(C)c1=O [Compound 4f, (E)-1,3,7-Trimethyl-8-(4-(3-(3-nitrophenyl)acryloyl)phenoxy)-1H-purine-2,6(3H,7H)-dione] gave an IC50 (MCF-7 cell line) greater than 500 µM, an IC50 (A-375 cell line) greater than 500 µM and an IC50 (HEK-293 cell line) greater than 500 µM.
Cn1c(=O)c2c(nc(Oc3ccc(/C=C/C(=O)c4cccc([N+](=O)[O-])c4)cc3)n2C)n(C)c1=O [Compound 5c, (E)-1,3,7-Trimethyl-8-(4-(3-(3-nitrophenyl)-3-oxoprop-1-enyl)phenoxy)-1H-purine-2,6(3H,7H)-dione] showed an IC50 (MCF-7 cell line) greater than 500 µM, an IC50 (A-375 cell line) greater than 500 µM and an IC50 (HEK-293 cell line) greater than 500 µM.
With Cc1ccc(/C=C/C(=O)c2ccc(Oc3nc4c(c(=O)n(C)c(=O)n4C)n3C)cc2)cc1 [Compound 4a, (E)-1,3,7-Trimethyl-8-(4-(3-p-tolylacryloyl)phenoxy)-1H-purine-2,6(3H,7H)-dione] the IC50 (MCF-7 cell line) was 38 ± 3.7 µM, the “Activity against MCF-7 compared to MTX (in words)” value (MCF-7 cell line) was “activities surpassing that of MTX” and the IC50 (A-375 cell line) was 279 ± 2.3 µM. For the same compound, the IC50 (HEK-293 cell line) was 407 ± 3.1 µM.
Cn1c(=O)c2c(nc(Oc3ccc(C(=O)/C=C/c4ccccc4Cl)cc3)n2C)n(C)c1=O [Compound 4i, (E)-8-(4-(3-(2-Chlorophenyl)acryloyl)phenoxy)-1,3,7-trimethyl-1H-purine-2,6(3H,7H)-dione] was tested, and the IC50 (MCF-7 cell line) was 108 ± 3.1 µM, the “Viability of A375 (in words)” value (A-375 cell line) was “lowest viability values” and the IC50 (A-375 cell line) was 111 ± 1.9 µM. For the same compound, the “Viability of HEK-293 (in words)” value (HEK-293 cell line; Fig. 6C) was “more toxic”, the IC50 (HEK-293 cell line) was 162 ± 4.2 µM and the “Toxicity to HEK-293 compared to MTX (in words)” value (HEK-293 cell line; MTT assay) was “more toxic”.
COc1ccccc1/C=C/C(=O)c1ccc(Oc2nc3c(c(=O)n(C)c(=O)n3C)n2C)cc1 [Compound 4c, (E)-8-(4-(3-(2-Methoxyphenyl)acryloyl)phenoxy)-1,3,7-trimethyl-1H-purine-2,6(3H,7H)-dione] was tested, and the IC50 (MCF-7 cell line) was 269 ± 4.5 µM, the IC50 (A-375 cell line) was 325 ± 3.8 µM and the IC50 (HEK-293 cell line) was 451 ± 2.4 µM.
